Results from paper PMC11609934, “Exploration and characterization of the antimalarial activity of cyclopropyl carboxamides that target the mitochondrial protein, cytochrome b” (European Journal of Medicinal Chemistry, 2024).

Tests used:
[1] = Human HepG2 growth inhibition assay (Cell TitreGlo, 48 h); format: cell-based; details: human, HepG2 cells, HepG2 cell growth inhibition over 48 h
Procedure: To establish the SAR, synthesized analogs were assessed against the asexual stage parasite (72 h) using LDH as a proxy for parasite growth inhibition. Cytotoxicity was monitored against the human HepG2 cell line using Cell TitreGlo as a metabolic marker for cell growth. Cyt b inhibitors typically have high lipophilicity, and so calculated physicochemical properties were determined, while in vitro ADME was also collected on representative analogs to gauge their suitability for efficacy studies in a 4-day P. berghei model.
Human HepG2 Growth Inhibition Assay. This is a routine assay undertaken at the Walter and Eliza Hall Institute and the method has been previously published. HepG2 cells were cultured in Dulbeccos modified eagles medium (DMEM) supplemented with 10 % fetal calf serum (FCS), in a humidified incubator at 37 °C and 5 % CO2. Assay plates (Greiner #781098, 384 well, white, tissue culture treated) were prepared by transferring appropriate volumes of 10 mM compound stocks using an Echo555 (Labcyte) such that the starting concentration was 50 μM, with a 1:2-fold dilution series. All wells were backfilled with DMSO to […] such that this remained constant (0.5 % DMSO). The positive growth control was 0.5 % DMSO and the negative growth control was 10 μM Bortezomib. HepG2 cells were seeded with 1000 cells in 50 μL DMEM with 10 % FCS into each well of the assay plates using a Multidrop Combi dispenser (Thermo Scientific). Plates were incubated at 37 °C and 5 % CO2 for 48 h. Cytotoxicity was determined using Cell Titer Glo (Promega) and calculated as a percentage using DMSO as the positive growth control and 10 μM Bortezomib as a negative growth control. EC50 values were calculated by Dotmatics 5.3 and Spotfire 7.11.1 software using a nonlinear regression four-parameter fit analysis. The equation used is sigmoidal dose response (variable slope), Y = bottom + (top − bottom)/(1 + 10((logEC50 − X) × Hill Slope)).

[2] = tested on: P. falciparum 3D7 parasites; test: P. falciparum 3D7 asexual stage LDH assay (72 h); format: cell-based, Plasmodium falciparum; details: for EC50: Plasmodium falciparum, 3D7, 72 h, LDH activity of P. falciparum 3D7 parasites over 72 h, means and SDs, three or more experiments, read-out: Pf 3D7 EC50 (SD)
Procedure: To establish the SAR, synthesized analogs were assessed against the asexual stage parasite (72 h) using LDH as a proxy for parasite growth inhibition. Cytotoxicity was monitored against the human HepG2 cell line using Cell TitreGlo as a metabolic marker for cell growth.
P. falciparum 3D7 Asexual Stage LDH Assay. This is a platform assay is routinely undertaken at the Walter and Eliza Hall Institute and details on the protocol has been previously published. Briefly, 10-point dilution series of the compounds were prepared in 384 well assay plates using an Echo555 (Labcyte). Appropriate volumes of 10 mM compound stocks were transferred into the assay plates such that the starting concentration was 1 μM, with a 1 in 3-fold dilution series. All wells were backfilled with DMSO to 40 nL such that this remained constant (0.1 % DMSO). The positive growth control was 0.1 % DMSO and the negative growth control was 100 nM chloroquine. The parasite inoculum (40 μL) was dispensed into plates containing compounds using a Multidrop Combi dispenser (Thermo Scientific). […] Following 72 h growth, plates were sealed with parafilm and frozen at −80 °C overnight. Plates were thawed at room temperature for at least 4 h prior to LDH activity being measured. […] Plates were shaken to ensure mixing and absorbance at 650 nm was measured in an EnVision (PerkinElmer) plate reader after 30 min of incubation at room temperature. […] The equation used is sigmoidal dose response (variable slope), Y = bottom + (top − bottom)/(1 + 10((logEC50 − X) × Hill Slope)).

SMILES | CC50 at 48 h [1] | EC50 [2] | fold decrease in Pf 3D7 activity relative to 17 ([2]; ratio of EC50 to compound 17)
CC(C)c1cccc(CN(Cc2ccc(C(=O)NC3CC3)cc2)C2CC2)c1 [Compound 54, N-Cyclopropyl-4-((cyclopropyl(3-isopropylbenzyl)amino)methyl)benzamide] | > 40000 nM | 80 nM | 
CC(C)c1ccc(CN(Cc2ccc(C(=O)NC3CC3)cc2)C2CC2)cc1 [Compound 55, N-Cyclopropyl-4-((cyclopropyl(4-isopropylbenzyl)amino)methyl)benzamide] | > 40000 nM | 110 nM | 
CC(C)(C)c1ccc(CN(Cc2ccc(C(=O)NC3CC3)cc2)C2CC2)cc1 [Compound 56] | > 40000 nM | 60 nM | 
COc1ccccc1CN(Cc1ccc(C(=O)NC2CC2)cc1)C1CC1 [Compound 57] | > 40000 nM | 270 nM | 
COc1cccc(CN(Cc2ccc(C(=O)NC3CC3)cc2)C2CC2)c1 [Compound 58] | > 40000 nM | 490 nM | 
COc1ccc(CN(Cc2ccc(C(=O)NC3CC3)cc2)C2CC2)cc1 [Compound 59] | > 40000 nM | 230 nM | 
N#Cc1ccccc1CN(Cc1ccc(C(=O)NC2CC2)cc1)C1CC1 [Compound 60] | > 40000 nM | 120 nM | 
N#Cc1cccc(CN(Cc2ccc(C(=O)NC3CC3)cc2)C2CC2)c1 [Compound 61] | > 40000 nM | 130 nM | 
N#Cc1ccc(CN(Cc2ccc(C(=O)NC3CC3)cc2)C2CC2)cc1 [Compound 62] | > 40000 nM | 630 nM | 
CN(C)c1ccc(CN(Cc2ccc(C(=O)NC3CC3)cc2)C2CC2)cc1 [Compound 63, N-Cyclopropyl-4-((cyclopropyl(4-(dimethylamino)benzyl)amino)methyl)benzamide] | > 40000 nM | 530 nM | 
CN(C)c1cccc(CN(Cc2ccc(C(=O)NC3CC3)cc2)C2CC2)c1 [Compound 64, N-Cyclopropyl-4-((cyclopropyl(3-(dimethylamino)benzyl)amino)methyl)benzamide] | > 40000 nM | 320 nM | 
CC(=O)Nc1ccccc1CN(Cc1ccc(C(=O)NC2CC2)cc1)C1CC1 [Compound 65, 4-(((2-Acetamidobenzyl) (cyclopropyl)amino)methyl)-N-cyclopropylbenzamide] | > 40000 nM | 7400 nM | 
CC(=O)c1cccc(CN(Cc2ccc(C(=O)NC3CC3)cc2)C2CC2)c1 [Compound 68] | > 40000 nM | 110 nM | 
CC(=O)c1ccc(CN(Cc2ccc(C(=O)NC3CC3)cc2)C2CC2)cc1 [Compound 69] | > 40000 nM | 900 nM | 
O=C(NC1CC1)c1ccc(CN(Cc2cccc(CO)c2)C2CC2)cc1 [Compound 70, N-Cyclopropyl-4-((cyclopropyl(3-(hydroxymethyl)benzyl)amino)methyl)benzamide] | > 40000 nM | 1100 nM | 
O=C(NC1CC1)c1ccc(CN(Cc2ccc(CO)cc2)C2CC2)cc1 [Compound 71, N-Cyclopropyl-4-((cyclopropyl(4-(hydroxymethyl)benzyl)amino)methyl)benzamide] | > 40000 nM | 170 nM | 
O=C(NC1CC1)c1ccc(CN(Cc2ccc(F)cc2F)C2CC2)cc1 [Compound 72, N-Cyclopropyl-4-((cyclopropyl(2,4-difluorobenzyl)amino)methyl)benzamide] | > 40000 nM | 230 nM | 
O=C(NC1CC1)c1ccc(CN(Cc2ccc(F)c(F)c2)C2CC2)cc1 [Compound 73] | > 40000 nM | 220 nM | 
O=C(NC1CC1)c1ccc(CN(Cc2cc(F)cc(F)c2)C2CC2)cc1 [Compound 74] | > 40000 nM | 220 nM | 
O=C(NC1CC1)c1ccc(CN(Cc2c(F)cc(F)cc2F)C2CC2)cc1 [Compound 75, N-Cyclopropyl-4-((cyclopropyl(2,4,6-trifluorobenzyl)amino)methyl)benzamide] | > 40000 nM | 190 nM | 

SMILES | CC50 at 48 h [1] | EC50 [2] | fold decrease in Pf 3D7 activity relative to 17 ([2]; ratio of EC50 to compound 17)
O=C(NC1CC1)c1ccc(CN(Cc2ccc(Cl)c(Cl)c2)C2CC2)cc1 [Compound 76] | > 40000 nM | 210 nM | 
O=C(NC1CC1)c1ccc(CN(Cc2cc(Cl)cc(Cl)c2)C2CC2)cc1 [Compound 77] | > 40000 nM | 230 nM | 
O=C(NC1CC1)c1ccc(CN(Cc2c(Cl)cc(Cl)cc2Cl)C2CC2)cc1 [Compound 78, N-Cyclopropyl-4-((cyclopropyl(2,4,6-trichlorobenzyl)amino)methyl)benzamide] | > 40000 nM | 100 nM | 
Cc1ccc(CN(Cc2ccc(C(=O)NC3CC3)cc2)C2CC2)c(C)c1 [Compound 80, N-Cyclopropyl-4-((cyclopropyl(2,4-dimethylbenzyl)amino)methyl)benzamide] | > 40000 nM | 190 nM | 
Cc1cc(C)cc(CN(Cc2ccc(C(=O)NC3CC3)cc2)C2CC2)c1 [Compound 81] | > 40000 nM | 190 nM | 
Cc1cc(C)c(CN(Cc2ccc(C(=O)NC3CC3)cc2)C2CC2)c(C)c1 [Compound 82, N-Cyclopropyl-4-((cyclopropyl(2,4,6-trimethylbenzyl)amino)methyl)benzamide] | > 40000 nM | 80 nM | 
COc1cc(OC)c(CN(Cc2ccc(C(=O)NC3CC3)cc2)C2CC2)c(OC)c1 [Compound 83, N-Cyclopropyl-4-((cyclopropyl(2,4,6-trimethoxybenzyl)amino)methyl)benzamide] | > 40000 nM | 2500 nM | 
O=C(NC1CC1)c1ccc(CN(Cc2cc(C(F)(F)F)cc(C(F)(F)F)c2)C2CC2)cc1 [Compound 84, 4-(((3,5-Bis(trifluoromethyl)benzyl) (cyclopropyl)amino)methyl)-N-cyclopropylbenzamide] | 15000 nM | 100 nM | 
O=C(NC1CC1)c1ccc(CN(Cc2ccccn2)C2CC2)cc1 [Compound 85] | > 40000 nM | 6600 nM | 
O=C(NC1CC1)c1ccc(CN(Cc2ccncc2)C2CC2)cc1 [Compound 87] | > 40000 nM | 9200 nM | 
CCCN(Cc1ccc(C(=O)NC2CC2)cc1)C1CC1 [Compound 90, N-Cyclopropyl-4-((cyclopropyl(propyl)amino)methyl)benzamide] | > 40000 nM | 2500 nM | 
CC(C)N(Cc1ccc(C(=O)NC2CC2)cc1)C1CC1 [Compound 91, N-Cyclopropyl-4-((cyclopropyl(isopropyl)amino)methyl)benzamide] | > 40000 nM | 2600 nM | 
CC(C)(C)CN(Cc1ccc(C(=O)NC2CC2)cc1)C1CC1 [Compound 93] | > 40000 nM | 460 nM | 
O=C(NC1CC1)c1ccc(CN(CC2CCC2)C2CC2)cc1 [Compound 94] | > 40000 nM | 520 nM | 
O=C(NC1CC1)c1ccc(CN(CC2CCCC2)C2CC2)cc1 [Compound 95] | > 40000 nM | 510 nM | 
O=C(NC1CC1)c1ccc(CN(CC2CCCCC2)C2CC2)cc1 [Compound 96] | > 40000 nM | 240 nM | 
CC(c1ccc(C(=O)NC2CC2)cc1)N(Cc1ccccc1)C1CC1 (stereo not drawn) [Compound 98, 4-(1-(Benzyl(cyclopropyl)amino)ethyl)-N-cyclopropylbenzamide] | > 40000 nM | 340 nM | 2 fold
O=C(NC1CC1)c1ccc(CN(C2CC2)S(=O)(=O)c2ccccc2)cc1 [Compound 101] | > 40000 nM | 2300 nM | 
O=C(NC1CC1)c1ccc(S(=O)(=O)N(Cc2ccccc2)C2CC2)cc1 [Compound 102, 4-(N-Benzyl-N-cyclopropylsulfamoyl)-N-cyclopropylbenzamide] | > 40000 nM | 4800 nM | 
O=C(NC1CC1)c1ccc(CN(Cc2ccccc2)C2CC2)cn1 [Compound 103, 5-((Benzyl(cyclopropyl)amino)methyl)-N-cyclopropylpicolinamide] | > 40000 nM | 7600 nM | 
